Results from patent US7408066B2, “Carbon-linked substituted piperidines and derivatives thereof useful as histamine H3 antagonists” (Schering Corproation, priority 2005, dated 2008).

Experiments:
[1] = biological target: T1, H3 receptors (guinea pig brain) (Cavia porcellus, UniProt Q9JI35); test: H3-receptor binding assay, guinea pig brain membranes
T1 construct: The brain tissue was homogenized with a solution of 50 mM Tris, pH 7.5; from tissue; host or cells: guinea pig brain membranes
Description: (§1) General Procedure for H3-Receptor Binding Assay
(§2) The source of the H3 receptors in this experiment was guinea pig brain. Alternatively, the source of H3 receptors was recombinant human receptor, expressed in HEK-293 (human embryonic kidney) cells.
The animals weighed 400-600 g. The brain tissue was homogenized with a solution of 50 mM Tris, pH 7.5. The final concentration of tissue in the homogenization buffer was 10% w/v. The homogenates were centrifuged at 1,000×g for 10 min. in order to remove clumps of tissue and debris. The resulting supernatants were then centrifuged at 50,000×g for 20 min. in order to sediment the membranes, which were next washed three times in homogenization buffer (50,000×g for 20 min. each). The membranes were frozen and stored at −70° C. until needed.
All compounds to be tested were dissolved in DMSO and then diluted into the binding buffer (50 mM Tris, pH 7.5) such that the final concentration was 2 μg/ml with 0.1% DMSO. Membranes were then added (400 μg of protein, 5 μg in the case of recombinant human receptor) to the reaction tubes. […] Bound ligand was separated from unbound ligand by filtration, and the amount of radioactive ligand bound to the membranes was quantitated by liquid scintillation spectrometry. […]

[2] = biological target: T2, H3 receptors (recombinant human receptor, expressed in HEK-293 cells) (Homo sapiens, UniProt Q9Y5N1); test: H3-receptor binding assay, recombinant human receptor
T2 construct: expressed in transfected cells; host or cells: HEK-293 (human embryonic kidney) cells
T2 sequence (Q9Y5N1 whole entry): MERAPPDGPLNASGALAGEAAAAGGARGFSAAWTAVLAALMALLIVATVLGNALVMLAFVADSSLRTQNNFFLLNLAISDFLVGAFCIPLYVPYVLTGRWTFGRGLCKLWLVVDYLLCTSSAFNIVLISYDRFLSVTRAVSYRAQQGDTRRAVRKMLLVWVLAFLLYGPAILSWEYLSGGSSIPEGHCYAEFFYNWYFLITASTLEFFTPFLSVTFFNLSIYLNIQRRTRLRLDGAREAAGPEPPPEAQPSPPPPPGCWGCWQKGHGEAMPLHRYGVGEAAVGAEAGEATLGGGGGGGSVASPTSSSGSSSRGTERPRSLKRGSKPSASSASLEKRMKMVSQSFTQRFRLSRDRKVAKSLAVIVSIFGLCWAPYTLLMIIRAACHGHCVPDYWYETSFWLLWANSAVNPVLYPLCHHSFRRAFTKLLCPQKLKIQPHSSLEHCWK
Description: as §1, §2
All compounds to be tested were dissolved in DMSO and then diluted into the binding buffer (50 mM Tris, pH 7.5) such that the final concentration was 2 μg/ml with 0.1% DMSO. Membranes were then added (400 μg of protein, 5 μg in the case of recombinant human receptor) to the reaction tubes. The reaction was started by the addition of 3 nM [^3H]R-α-methyl histamine (8.8 Ci/mmol) or 3 nM [^3H]N^α-methyl histamine (80 Ci/mmol) and continued under incubation at 30° C. for 30 min. Bound ligand was separated from unbound ligand by filtration, and the amount of radioactive ligand bound to the membranes was quantitated by liquid scintillation spectrometry. All incubations were performed in duplicate and the standard error was always less than 10%. Compounds that inhibited more than 70% of the specific binding of radioactive ligand to the receptor were serially diluted to determine a Ki (nM).

T1 sequence (Q9JI35 whole entry): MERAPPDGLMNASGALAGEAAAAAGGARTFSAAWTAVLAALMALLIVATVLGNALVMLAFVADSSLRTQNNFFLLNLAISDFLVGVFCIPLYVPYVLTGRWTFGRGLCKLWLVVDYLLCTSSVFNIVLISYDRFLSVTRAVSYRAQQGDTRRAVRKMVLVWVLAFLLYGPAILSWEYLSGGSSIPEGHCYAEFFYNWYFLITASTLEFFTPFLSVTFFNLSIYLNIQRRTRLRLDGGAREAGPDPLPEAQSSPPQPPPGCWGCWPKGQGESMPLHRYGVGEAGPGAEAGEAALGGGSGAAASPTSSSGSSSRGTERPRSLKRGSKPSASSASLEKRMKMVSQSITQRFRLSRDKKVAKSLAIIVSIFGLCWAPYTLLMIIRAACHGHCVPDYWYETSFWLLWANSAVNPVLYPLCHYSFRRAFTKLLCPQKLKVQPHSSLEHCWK

Structure (SMILES)	Ki [1]	Ki [2]
CS(=O)(=O)NC(c1ccccn1)C1CCN(C(=O)C2CCN(Cc3ccnc(N)c3)CC2)CC1 (centres unmarked) [Example 92]	0.35 nM	–
CNC(=O)[C@H]1C[C@@]1(c1ccc(Cl)cc1)C1CCN(C(=O)C2CCN(Cc3ccnc(N)c3)CC2)CC1 [Example 88]	–	1.1 nM
